Laboratory results as given in US20160199524A1, “RADIOSENSITIVITY OF FLUOROPHORES AND USE OF RADIOPROTECTIVE AGENTS FOR DUAL-MODALITY IMAGING” (Immunomedics, Inc., priority 2015, published 2016).

Assay: in vivo
Conditions: mouse, in vivo, iv
Procedure: Mice were necropsied at 1 and 3 h post injection, 7 mice per time point.
Biodistribution studies were performed in Taconic nude mice bearing subcutaneous LS174T tumor xenografts.
Mice were necropsied at 1 and 3 h post injection, 6 mice per time point.

[1] = Taconic nude, % ID/org Sm. Int.
[2] = nude (Taconic), 28 uCi, total radioactivity, % ID/g Lung

Work on `NC(=O)[C@@H](CCCCNC(=O)CNC(=O)CCC(=O)NCCc1c[nH]cn1)NC(=O)[C@@H](Cc1ccc(O)cc1)NC(=O)[C@@H](CCCCNC(=O)CNC(=O)CCC(=O)NCCc1c[nH]cn1)NC(=O)Cc1ccc(CN2CCN(CC(=O)O)CCN(CC(=O)O)CC2)cc1` [Al^18F(IMP485)] yielded a tissue uptake dose at 1 h (Taconic nude, % ID/org Liver) of 0.295 %ID, a tissue uptake dose at 3 h (Taconic nude, % ID/org Lung) of 0.035 %ID and a tissue uptake dose at 1 h (Taconic nude, % ID/org Muscle) of 0.012 %ID. It also gave a tissue uptake dose at 3 h (Taconic nude, % ID/org Muscle) of 0.002 %ID, a tissue uptake dose at 1 h (Taconic nude, % ID/org Scapula) of 0.095 %ID and a tissue uptake dose at 1 h [1] of 0.586 %ID. It also gave a tissue uptake dose at 3 h [1] of 0.059 %ID, a tissue uptake dose at 1 h (Taconic nude, % ID/org Spleen) of 0.02 %ID and a tissue uptake dose at 3 h (Taconic nude, % ID/org Stomach) of 0.01 %ID. The tissue uptake dose at 1 h (Taconic nude, % ID/org Tumor) was 8.03 %ID, the tissue uptake at 1 h (nude (Taconic), 28 uCi, total radioactivity) was 0.114 %ID/g and the tissue uptake at 1 h (nude (Taconic), 28 uCi, total radioactivity, % ID/g Blood) was 0.165 %ID/g. It also gave a tissue uptake at 1 h (nude (Taconic), 28 uCi, total radioactivity, % ID/g Lg. Int.) of 0.081 %ID/g, a tissue uptake at 1 h (nude (Taconic), 28 uCi, total radioactivity, % ID/g Liver) of 0.176 %ID/g and a tissue uptake at 1 h [2] of 0.238 %ID/g. The tissue uptake at 3 h [2] was 0.073 %ID/g, the tissue uptake at 1 h (nude (Taconic), 28 uCi, total radioactivity, % ID/g Scapula, alone, 1 h post injection) was 0.107 %ID/g and the tissue uptake at 1 h (nude (Taconic), 28 uCi, total radioactivity, % ID/g Sm. Int., alone, 1 h post injection) was 0.396 %ID/g. The tissue uptake at 1 h (nude (Taconic), 28 uCi, total radioactivity, % ID/g Spleen, alone, 1 h post injection) was 0.21 %ID/g, the tissue uptake at 1 h (nude (Taconic), 28 uCi, total radioactivity, % ID/g Stomach, alone, 1 h post injection) was 0.126 %ID/g and the tissue uptake at 1 h (nude (Taconic), 28 uCi, total radioactivity, % ID/g Tumor, alone, 1 h post injection) was 0.316 %ID/g. For the same compound, the tissue uptake dose at 1 h (nude (Taconic), 28 uCi, total radioactivity, % ID/org Blood, alone, 1 h post injection) was 0.268 %ID, the tissue uptake dose at 1 h (nude (Taconic), 28 uCi, total radioactivity, % ID/org Kidney, alone, 1 h post injection) was 0.499 %ID and the tissue uptake dose at 1 h (nude (Taconic), 28 uCi, total radioactivity, % ID/org Lg. Int., alone, 1 h post injection) was 0.041 %ID. For the same compound, the tissue uptake dose at 1 h (nude (Taconic), 28 uCi, total radioactivity, % ID/org Liver, alone, 1 h post injection) was 0.22 %ID, the tissue uptake dose at 1 h (nude (Taconic), 28 uCi, total radioactivity, % ID/org Lung, alone, 1 h post injection) was 0.033 %ID and the tissue uptake dose at 1 h (nude (Taconic), 28 uCi, total radioactivity, % ID/org Scapula, alone, 1 h post injection) was 0.006 %ID. It also gave a tissue uptake dose at 1 h (nude (Taconic), 28 uCi, total radioactivity, % ID/org Sm. Int., alone, 1 h post injection) of 0.353 %ID, a tissue uptake dose at 1 h (nude (Taconic), 28 uCi, total radioactivity, % ID/org Spleen, alone, 1 h post injection) of 0.018 %ID and a tissue uptake dose at 1 h (nude (Taconic), 28 uCi, total radioactivity, % ID/org Stomach, alone, 1 h post injection) of 0.057 %ID. The tissue uptake dose at 1 h (nude (Taconic), 28 uCi, total radioactivity, % ID/org Tumor, alone, 1 h post injection) was 0.081 %ID, the tissue uptake at 3 h (nude (Taconic), total radioactivity, % ID/g Kidney) was 2.22 %ID/g and the tissue uptake at 3 h (nude (Taconic), total radioactivity, % ID/g Liver) was 0.142 %ID/g. The tissue uptake at 3 h (nude (Taconic), total radioactivity, % ID/g Scapula) was 0.058 %ID/g, the tissue uptake at 3 h (nude (Taconic), total radioactivity, % ID/g Spleen) was 0.138 %ID/g and the tissue uptake dose at 3 h (nude (Taconic), total radioactivity, % ID/org Kidney) was 0.319 %ID. It also gave a tissue uptake dose at 3 h (nude (Taconic), total radioactivity, % ID/org Liver) of 0.178 %ID, a tissue uptake dose at 3 h (nude (Taconic), total radioactivity, % ID/org Scapula) of 0.008 %ID and a tissue uptake dose at 3 h (nude (Taconic), total radioactivity, % ID/org Spleen) of 0.011 %ID. For the same compound, the tissue uptake dose at 3 h (nude (Taconic), total radioactivity, % ID/org Tumor) was 8.13 %ID, the tissue uptake at 3 h (nude, 28 uCi, total radioactivity, % ID/g Lg. Int.) was 0.713 %ID/g and the tissue uptake at 3 h (nude, 28 uCi, total radioactivity, % ID/g Liver) was 0.095 %ID/g. It also gave a tissue uptake at 3 h (nude, 28 uCi, total radioactivity, % ID/g Muscle) of 0.013 %ID/g, a tissue uptake at 3 h (nude, 28 uCi, total radioactivity, % ID/g Sm. Int., alone, 3 h post injection) of 0.137 %ID/g and a tissue uptake at 3 h (nude, 28 uCi, total radioactivity, % ID/g Spleen, alone, 3 h post injection) of 0.065 %ID/g. It also gave a tissue uptake at 3 h (nude, 28 uCi, total radioactivity, % ID/g Stomach, alone, 3 h post injection) of 0.041 %ID/g, a tissue uptake at 3 h (nude, 28 uCi, total radioactivity, % ID/g Tumor, alone, 3 h post injection) of 0.088 %ID/g and a tissue uptake dose at 3 h (nude, 28 uCi, total radioactivity, % ID/org Blood, alone, 3 h post injection) of 0.013 %ID. It also gave a tissue uptake dose at 3 h (nude, 28 uCi, total radioactivity, % ID/org Kidney, alone, 3 h post injection) of 0.345 %ID, a tissue uptake dose at 3 h (nude, 28 uCi, total radioactivity, % ID/org Lg. Int., alone, 3 h post injection) of 0.408 %ID and a tissue uptake dose at 3 h (nude, 28 uCi, total radioactivity, % ID/org Liver, alone, 3 h post injection) of 0.114 %ID. For the same compound, the tissue uptake dose at 3 h (nude, 28 uCi, total radioactivity, % ID/org Scapula, alone, 3 h post injection) was 0.006 %ID, the tissue uptake dose at 3 h (nude, 28 uCi, total radioactivity, % ID/org Sm. Int., alone, 3 h post injection) was 0.119 %ID and the tissue uptake dose at 3 h (nude, 28 uCi, total radioactivity, % ID/org Spleen, alone, 3 h post injection) was 0.006 %ID. For the same compound, the tissue uptake dose at 3 h (nude, 28 uCi, total radioactivity, % ID/org Stomach, alone, 3 h post injection) was 0.016 %ID, the tissue uptake dose at 3 h (nude, 28 uCi, total radioactivity, % ID/org Tumor, alone, 3 h post injection) was 0.022 %ID and the tissue uptake at 1 h (nude, total radioactivity, % ID/g Blood) was 0.278 %ID/g. For the same compound, the tissue uptake at 1 h (nude, total radioactivity, % ID/g Lung) was 0.535 %ID/g, the tissue uptake at 1 h (nude, total radioactivity, % ID/g Sm. Int.) was 0.686 %ID/g and the tissue uptake at 1 h (nude, total radioactivity, % ID/g Stomach) was 0.534 %ID/g. For the same compound, the tissue uptake dose at 1 h (nude, total radioactivity, % ID/org Blood) was 0.456 %ID, the tissue uptake dose at 1 h (nude, total radioactivity, % ID/org Lung) was 0.075 %ID and the tissue uptake dose at 1 h (nude, total radioactivity, % ID/org Stomach) was 0.265 %ID.
